In US9067977B2, “Peptides derivatized with A-B-C-D- and their therapeutical use” (Novo Nordisk A/S, priority 2007, dated 2015):
Starred links: 1 amine or outer side, 2 acyl side, 3 side chain; linkers in the order of their positions; H or OH if unused. Non-standard residues stand in square brackets, D forms with d. Residues, ends and D or L forms follow the SMILES beside them. Groups on a side chain read outwards from the residue. *: point of attachment. X2 = O=C(O)CCCCCCCCCCCCCCCCCCC(=O)NCC1CCC(C(=O)*)CC1; C20 diacid = O=C(O)CCCCCCCCCCCCCCCCCCC(=O)*; γGlu = O=C(O)[C@H](CCC(=O)[*:2])N[*:1]; Desaminohistidyl = O=C(CCc1c[nH]cn1)*; βAsp = O=C(O)[C@H](CC(=O)[*:2])N[*:1]; Trx = NC[C@H]1CC[C@H](C(=O)O)CC1; AEEA = NCCOCCOCC(=O)O; Aib = CC(C)(N)C(=O)O; Inp = O=C(O)C1CCNCC1

Target: human serum albumin (HSA) (Homo sapiens, UniProt P02768)
Sequence (P02768 25-609): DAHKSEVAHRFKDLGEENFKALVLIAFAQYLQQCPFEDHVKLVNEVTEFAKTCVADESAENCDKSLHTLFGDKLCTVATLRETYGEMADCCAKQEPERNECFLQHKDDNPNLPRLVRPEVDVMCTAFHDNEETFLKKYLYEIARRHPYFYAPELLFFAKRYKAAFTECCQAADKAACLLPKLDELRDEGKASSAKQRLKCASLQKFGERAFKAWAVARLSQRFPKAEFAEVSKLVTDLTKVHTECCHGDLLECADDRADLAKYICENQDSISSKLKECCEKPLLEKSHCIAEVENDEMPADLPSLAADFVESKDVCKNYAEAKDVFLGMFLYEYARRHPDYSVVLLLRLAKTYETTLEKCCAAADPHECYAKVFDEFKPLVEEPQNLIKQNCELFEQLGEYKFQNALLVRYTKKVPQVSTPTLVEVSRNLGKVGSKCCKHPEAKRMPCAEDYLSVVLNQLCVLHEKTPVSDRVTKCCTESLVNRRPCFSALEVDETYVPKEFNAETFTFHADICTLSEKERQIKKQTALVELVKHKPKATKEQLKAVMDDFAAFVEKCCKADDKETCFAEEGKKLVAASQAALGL
Assay: Albumin binding affinity, competition scintillation proximity assay
Protocol: Streptavidin-SPA beads (GE Healthcare RPNQ0009) were incubated with biotinylated HSA for 5 hours. The beads were washed with buffer to remove unbound HSA. […] After 20 hours of gentle rocking at room temperature the plates were centrifuged and counted on a TopCounter.

EC50 [nM]	EC50 at 20 h (human, biotinylated human serum albumin on streptavidin-SPA beads, pH 7.4) [nM]	SMILES
100 to 150	–	CC[C@H](C)[C@H](NC(=O)[C@H](Cc1ccccc1)NC(=O)[C@H](CCC(=O)O)NC(=O)[C@H](CCCCNC(=O)COCCOCCNC(=O)COCCOCCNC(=O)COCCOCCNC(=O)COCCOCCNC(=O)COCCOCCNC(=O)COCCOCCNC(=O)CC[C@H](NC(=O)CC[C@H](NC(=O)CCCCCCCCCCCNC(=O)CCCS(=O)(=O)NC(=O)CCCCCCCCCCCCCCCc1nnn[nH]1)C(=O)O)C(=O)O)NC(=O)[C@H](C)NC(=O)[C@H](C)NC(=O)[C@H](CCC(N)=O)NC(=O)CNC(=O)[C@H](CCC(=O)O)NC(=O)[C@H](CC(C)C)NC(=O)[C@H](Cc1ccc(O)cc1)NC(=O)[C@H](CO)NC(=O)[C@H](CO)NC(=O)[C@@H](NC(=O)[C@H](CC(=O)O)NC(=O)[C@H](CO)NC(=O)[C@@H](NC(=O)[C@H](Cc1ccccc1)NC(=O)[C@@H](NC(=O)CNC(=O)[C@H](CCC(=O)O)NC(=O)C(C)(C)NC(=O)[C@@H](N)Cc1c[nH]cn1)[C@@H](C)O)[C@@H](C)O)C(C)C)C(=O)N[C@@H](C)C(=O)N[C@@H](Cc1c[nH]c2ccccc12)C(=O)N[C@@H](CC(C)C)C(=O)N[C@H](C(=O)N[C@@H](CCCNC(=N)N)C(=O)NCC(=O)N[C@@H](CCCNC(=N)N)C(N)=O)C(C)C [Example 45, N-epsilon26-[2-(2-{2-[2-(2-{2-[2-(2-{2-[2-(2-{2-[2-(2-{2-[2-(2-{2-[(S)-4-Carboxy-4-((S)-4-carboxy-4-{12-[4-(16-(1H-tetrazol-5-yl)hexadecanoylsulfamoyl)butyrylamino]dodecanoylamino}butyrylamino)butyrylamino]ethoxy}ethoxy)acetylamino]ethoxy}ethoxy)acetylamino]ethoxy}ethoxy)acetylamino]ethoxy}ethoxy)acetylamino]ethoxy}ethoxy)acetylamino]ethoxy}ethoxy)acetyl][Aib8,Lys26,Arg34]GLP-1-(7-36)amide]
300 to 800	–	CC[C@H](C)[C@H](NC(=O)[C@H](Cc1ccccc1)NC(=O)[C@H](CCC(=O)O)NC(=O)[C@H](CCCNC(=N)N)NC(=O)[C@H](C)NC(=O)[C@H](C)NC(=O)[C@H](CCC(N)=O)NC(=O)[C@H](CCC(=O)O)NC(=O)[C@H](CCC(=O)O)NC(=O)[C@H](CC(C)C)NC(=O)[C@H](Cc1ccc(O)cc1)NC(=O)[C@H](CO)NC(=O)[C@H](CO)NC(=O)[C@@H](NC(=O)[C@H](CC(=O)O)NC(=O)[C@H](CO)NC(=O)[C@@H](NC(=O)[C@H](Cc1ccccc1)NC(=O)[C@@H](NC(=O)CNC(=O)[C@H](CCC(=O)O)NC(=O)C(C)(C)NC(=O)[C@@H](N)Cc1c[nH]cn1)[C@@H](C)O)[C@@H](C)O)C(C)C)C(=O)N[C@@H](C)C(=O)N[C@@H](Cc1c[nH]c2ccccc12)C(=O)N[C@@H](CC(C)C)C(=O)N[C@H](C(=O)N[C@@H](CCCNC(=N)N)C(=O)NCC(=O)N[C@@H](CCCNC(=N)N)C(=O)N[C@@H](CCCCNC(=O)COCCOCCNC(=O)COCCOCCNC(=O)C[C@H](NC(=O)C1CCN(C(=O)CCCCCCCCCCCCCCCCCCC(=O)O)CC1)C(=O)O)C(N)=O)C(C)C [Example 4, N-epsilon37{2-[2-(2-{2-[2-((S)-3-carboxy-3-{[1-(19-carboxynonadecanoyl)piperidine-4-carbonyl]amino}propionylamino)ethoxy]ethoxy}acetylamino)ethoxy]ethoxy}acetyl [Aib8,Glu22,Arg26,Arg34,Lys37]GLP-1-(7-37)amide]
300 to 800	–	CC[C@H](C)[C@H](NC(=O)[C@H](Cc1ccccc1)NC(=O)[C@H](CCC(=O)O)NC(=O)[C@H](CCCNC(=N)N)NC(=O)[C@H](C)NC(=O)[C@H](C)NC(=O)[C@H](CCC(N)=O)NC(=O)[C@H](CCC(=O)O)NC(=O)[C@H](CCC(=O)O)NC(=O)[C@H](CC(C)C)NC(=O)[C@H](Cc1ccc(O)cc1)NC(=O)[C@H](CO)NC(=O)[C@H](CO)NC(=O)[C@@H](NC(=O)[C@H](CC(=O)O)NC(=O)[C@H](CO)NC(=O)[C@@H](NC(=O)[C@H](Cc1ccccc1)NC(=O)[C@@H](NC(=O)CNC(=O)[C@H](CCC(=O)O)NC(=O)[C@H](C)NC(=O)CCc1c[nH]cn1)[C@@H](C)O)[C@@H](C)O)C(C)C)C(=O)N[C@@H](C)C(=O)N[C@@H](Cc1c[nH]c2ccccc12)C(=O)N[C@@H](CC(C)C)C(=O)N[C@H](C(=O)N[C@@H](CCCNC(=N)N)C(=O)NCC(=O)N[C@@H](CCCNC(=N)N)C(=O)NCC(=O)N[C@@H](CCCCNC(=O)COCCOCCNC(=O)COCCOCCNC(=O)CC[C@H](NC(=O)C1CCN(C(=O)CCCCCCCCCCCCCCCCCCC(=O)O)CC1)C(=O)O)C(=O)O)C(C)C [Example 7, [DesaminoHis7,Glu22,Arg26,Arg34]GLP-1-(7-37)-Lys(2-{2-[2-(2-{2-[2-((S)-4-Carboxy-4-{[1-(19-carboxynonadecanoyl)piperidine-4-carbonyl]amino}butyrylamino)ethoxy]ethoxy}acetylamino)ethoxy]ethoxy}acetyl)] (Desaminohistidyl-AEGTFTSDVSSYLEEQAAREFIAWLVRGRGK([AEEA-AEEA-γGlu-Inp-C20 diacid])-OH)

The remaining lines, values behind:

SMILES	EC50 [nM]	EC50 at 20 h (human, biotinylated human serum albumin on streptavidin-SPA beads, pH 7.4) [nM]
CC[C@H](C)[C@H](NC(=O)[C@H](Cc1ccccc1)NC(=O)[C@H](CCC(=O)O)NC(=O)[C@H](CCCNC(=N)N)NC(=O)[C@H](C)NC(=O)[C@H](C)NC(=O)[C@H](CCC(N)=O)NC(=O)[C@H](CCC(=O)O)NC(=O)[C@H](CCC(=O)O)NC(=O)[C@H](CC(C)C)NC(=O)[C@H](Cc1ccc(O)cc1)NC(=O)[C@H](CO)NC(=O)[C@H](CO)NC(=O)[C@@H](NC(=O)[C@H](CC(=O)O)NC(=O)[C@H](CO)NC(=O)[C@@H](NC(=O)[C@H](Cc1ccccc1)NC(=O)[C@@H](NC(=O)CNC(=O)[C@H](CCC(=O)O)NC(=O)C(C)(C)NC(=O)[C@@H](N)Cc1c[nH]cn1)[C@@H](C)O)[C@@H](C)O)C(C)C)C(=O)N[C@@H](C)C(=O)N[C@@H](Cc1c[nH]c2ccccc12)C(=O)N[C@@H](CC(C)C)C(=O)N[C@H](C(=O)N[C@@H](CCCNC(=N)N)C(=O)NCC(=O)N[C@@H](CCCNC(=N)N)C(=O)NCC(=O)N[C@@H](CCCCNC(=O)COCCOCCNC(=O)COCCOCCNC(=O)C[C@H](NC(=O)C1CCC(CNC(=O)CCCCCCCCCCCCCCCCCCC(=O)O)CC1)C(=O)O)C(N)=O)C(C)C (stereo partly drawn) [Example 22, [Aib8,Glu22,Arg26,Arg34]GLP-1-(7-37)Lys[2-(2-[2-(2-[2-(2-((S)-3-[4-([19-Carboxynonadecanoylamino]methyl)cyclohexylcarbonylamino]-3-carboxypropionylamino)ethoxy)ethoxy]acetylamino)ethoxy]ethoxy)acetyl]amide] (H-H[Aib]EGTFTSDVSSYLEEQAAREFIAWLVRGRGK([AEEA-AEEA-βAsp-X2])-NH2; N-terminus assumed)	150 to 300	–
CC[C@H](C)[C@H](NC(=O)[C@H](Cc1ccccc1)NC(=O)[C@H](CCC(=O)O)NC(=O)[C@H](CCCNC(=N)N)NC(=O)[C@H](C)NC(=O)[C@H](C)NC(=O)[C@H](CCC(N)=O)NC(=O)[C@H](CCC(=O)O)NC(=O)[C@H](CCC(=O)O)NC(=O)[C@H](CC(C)C)NC(=O)[C@H](Cc1ccc(O)cc1)NC(=O)[C@H](CO)NC(=O)[C@H](CO)NC(=O)[C@@H](NC(=O)[C@H](CC(=O)O)NC(=O)[C@H](CO)NC(=O)[C@@H](NC(=O)[C@H](Cc1ccccc1)NC(=O)[C@@H](NC(=O)CNC(=O)[C@H](CCC(=O)O)NC(=O)[C@H](C)NC(=O)CCc1c[nH]cn1)[C@@H](C)O)[C@@H](C)O)C(C)C)C(=O)N[C@@H](C)C(=O)N[C@@H](Cc1c[nH]c2ccccc12)C(=O)N[C@@H](CC(C)C)C(=O)N[C@H](C(=O)N[C@@H](CCCNC(=N)N)C(=O)NCC(=O)N[C@@H](CCCNC(=N)N)C(=O)NCC(=O)N[C@@H](CCCCNC(=O)COCCOCCNC(=O)COCCOCCNC(=O)CC[C@H](NC(=O)[C@H]1CC[C@H](CNC(=O)CCCCCCCCCCCCCCCCCCC(=O)O)CC1)C(=O)O)C(N)=O)C(C)C [Example 27, [DesaminoHis7,Glu22,Arg26,Arg34]GLP-1-(7-37)Lys[2-(2-{2-[2-(2-{2-[4-Carboxy-4-({trans-4-[(19-carboxy-nonadecanoylamino)methyl]cyclohexanecarbonyl}amino)butyrylamino]ethoxy}ethoxy)acetylamino]ethoxy}ethoxy)acetyl]-amide] (Desaminohistidyl-AEGTFTSDVSSYLEEQAAREFIAWLVRGRGK([AEEA-AEEA-γGlu-Trx-C20 diacid])-NH2)	–	800 to 2000
CC[C@H](C)[C@H](NC(=O)[C@H](Cc1ccccc1)NC(=O)[C@H](CCC(=O)O)NC(=O)[C@H](CCCNC(=N)N)NC(=O)[C@H](C)NC(=O)[C@H](C)NC(=O)[C@H](CCC(N)=O)NC(=O)[C@H](CCC(=O)O)NC(=O)[C@H](CCC(=O)O)NC(=O)[C@H](CC(C)C)NC(=O)[C@H](Cc1ccc(O)cc1)NC(=O)[C@H](CO)NC(=O)[C@H](CO)NC(=O)[C@@H](NC(=O)[C@H](CC(=O)O)NC(=O)[C@H](CO)NC(=O)[C@@H](NC(=O)[C@H](Cc1ccccc1)NC(=O)[C@@H](NC(=O)CNC(=O)[C@H](CCC(=O)O)NC(=O)[C@H](C)NC(=O)CCc1c[nH]cn1)[C@@H](C)O)[C@@H](C)O)C(C)C)C(=O)N[C@@H](C)C(=O)N[C@@H](Cc1c[nH]c2ccccc12)C(=O)N[C@@H](CC(C)C)C(=O)N[C@H](C(=O)N[C@@H](CCCNC(=N)N)C(=O)NCC(=O)N[C@@H](CCCNC(=N)N)C(=O)N[C@@H](CCCCNC(=O)COCCOCCNC(=O)COCCOCCNC(=O)C[C@@H](NC(=O)C1CCN(C(=O)CCCCCCCCCCCCCCCCCCC(=O)O)CC1)C(=O)O)C(N)=O)C(C)C [Example 1, N-ε^37{2-[2-(2-{2-[2-((R)-3-carboxy-3-{[1-(19-carboxynonadecanoyl)piperidine-4-carbonyl]amino}propionylamino)ethoxy]ethoxy}acetylamino)ethoxy]ethoxy}acetyl [desaminoHis^7,Glu^22,Arg^26,Arg^34,Lys^37]GLP-1(7-37)amide]	300 to 800	–
